The text below walks through data of US9951035B2, “Selective matrix metalloproteinase inhibitors” (University of Notre Dame du Lac, priority 2014, dated 2018).

One test addresses MMP-9 (Homo sapiens (Human), UniProt P14780). Briefly: Gel experiment, cleavage of tau by MMP-9. It counts as biochemical. Particulars: in words.
The target in the next test is MMP-2 (Homo sapiens (Human), UniProt P08253). Kind of test: Enzyme inhibition studies, MMP-2. Conditions: slow-binding, Ki calculated from koff/kon. It counts as biochemical.
A further test has as its target MMP-3 (Homo sapiens (Human), UniProt P08254). Briefly: Enzyme inhibition studies, MMP-3 catalytic domain. Type of test: biochemical. Particulars: at 100 μM; listed as ND-336, HCl salt.
The subject of a further test is diabetic (db/db) mice. Briefly: Mouse diabetic wound model. Type of test: in vivo. Particulars: compared with ND-322; in words. The text has this: The excisional mouse diabetic model validated by Sullivan et al. was used (Sullivan et al., Plast. Reconstr. Surg. (2004) 113, 953-960). The procedure for inflicting the wounds (single 8 mm wound on the dorsal region) was the same as described previously (Gooyit et al., ACS Chem. Biol. (2014) 9, 505-510). Wounds were photographed and covered with a sterile 3M Tegaderm™ transparent dressing (Butler Schein Animal Health, Inc.).
Female diabetic db/db (BKS.Cg-Dock7m+/+Leprdb/J, 8-weeks old, 38±3 g, n=24) were used for this study. Wounds were inflicted as described. Treatment with the MMP-2 inhibitor (50 μL of 5.0 mg/mL in 80% propylene glycol/20% DMSO, equivalent to 0.25 mg per wound) or vehicle (50 μL of 80% propylene glycol/20% DMSO) was started one day after wound infliction and continued once a day for 14 days. Digital photographs of wounds were taken on days 0, 7, 10, and 14 while the animals were under isoflurane anesthesia. On day 14, all mice were sacrificed. The wounds were excised, embedded in optimal cutting temperature (OCT) compound, and cryosectioned for histological evaluation.
Female diabetic db/db (BKS.Cg-Dock7m+/+Leprdb/J, 8-weeks old, 38±3 g, n=24) were used for this study. Wounds were inflicted and the following day the wounds were treated topically with MMP-8 (50 μL of 20 μg/mL MMP-8 in reaction buffer) or vehicle (50 μL reaction buffer) once a day for 14 days. The reaction buffer consisted of 50 mM Tris (pH 7.5), 10 mM CaCl2, 150 mM NaCl, and 0.05% (w/v) Brij-35. Digital photographs of the wounds were taken on days 0, 7, 10, and 14 while animals were under isoflurane anesthesia. On days 7 and 14, 12 mice (n=6 per group) were sacrificed. The wounds were excised, embedded in OCT compound, and cryosectioned for histological evaluation.
Photographs were taken using the procedure described by Gooyit et al. (ACS Chem Biol. (2014) 9, 505-510) at a fixed distance above the wounds and calibrated using a ruler included in the photographic frame. Image J 1.48c software was used to calculate wound areas. The percentage of wound closure was calculated from the wound area on the specified day relative to that on day 0.
Fresh wound tissue was harvested and embedded in OCT compound. Subsequently, the tissue was cryosectioned for H&E staining (12-μm thickness) and for apoptosis assays and in-situ zymography (8-μm thickness). Re-epithelialization was assessed on a Nikon Eclipse 90i Fluorescent Microscope (Nikon Instruments Inc.) as described earlier (Tkalcevic et al., Toxicol. Pathol. (2009) 37, 183-192). Apoptosis was evaluated using Derma TACS™ Apoptosis detection kits (Trevigen, Inc.) according to the manufacturer's instructions. The protocol of in-situ zymography was adapted from known methods. Gelatinolytic activity was detected in unfixed cryostat sections using DQ-gelatin as a substrate. DQ-gelatin was prepared at a concentration of 20 μg/mL in Tris-buffered saline (TBS) buffer (50 mM TBS pH 7.6, 1 mM CaCl2). A general MMP inhibitor in 0.5 mM EDTA was prepared as a negative control. Cryostat sections were air-dried for 10 min and incubated in the substrate mixture in the presence and absence of EDTA for 1 hr at room temperature. After the incubation period, the slides were washed in PBS (three times, 5 min each), fixed with 4% paraformaldehyde in PBS for 10 min in the dark, washed again with PBS (three times, 5 min each), incubated in the dark for 5 min with 300 nM DAPI solution, and mounted with anti-quenching mounting medium. Fluorescence of FITC was detected with excitation at 460-500 nm and emission at 512-542 nm. DAPI was detected with excitation at 340-380 nm and emission at 425-∞ nm.
Data are expressed as mean±SD. Wound healing between the groups in the studies were analyzed for statistical significance using a paired Student t-test, where p<0.05 was considered statistically significant.

Structures can show the parent of a compound that is named as a salt.

Chain of MMP-2 (P08253 110-660): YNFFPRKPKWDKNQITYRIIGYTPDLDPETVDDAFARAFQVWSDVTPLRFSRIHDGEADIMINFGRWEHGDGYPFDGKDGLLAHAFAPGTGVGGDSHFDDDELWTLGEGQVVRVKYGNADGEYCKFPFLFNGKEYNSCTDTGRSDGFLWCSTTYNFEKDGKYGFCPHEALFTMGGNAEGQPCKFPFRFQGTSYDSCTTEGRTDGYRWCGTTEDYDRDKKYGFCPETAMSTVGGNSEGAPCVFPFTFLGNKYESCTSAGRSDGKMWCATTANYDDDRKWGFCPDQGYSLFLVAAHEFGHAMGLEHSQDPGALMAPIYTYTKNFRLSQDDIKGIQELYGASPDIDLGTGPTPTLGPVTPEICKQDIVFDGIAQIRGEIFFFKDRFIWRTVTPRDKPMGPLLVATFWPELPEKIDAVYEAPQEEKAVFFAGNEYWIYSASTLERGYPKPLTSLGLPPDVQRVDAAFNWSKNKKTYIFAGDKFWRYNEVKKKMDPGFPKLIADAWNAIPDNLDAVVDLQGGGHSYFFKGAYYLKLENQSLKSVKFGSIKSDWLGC
Chain of MMP-3 (P08254 100-272): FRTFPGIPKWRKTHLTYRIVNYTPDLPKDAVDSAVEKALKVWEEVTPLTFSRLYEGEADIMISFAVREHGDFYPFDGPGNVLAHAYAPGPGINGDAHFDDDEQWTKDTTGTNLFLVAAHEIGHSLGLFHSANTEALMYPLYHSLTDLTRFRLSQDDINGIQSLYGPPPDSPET
Chain of MMP-9 (P14780 94-707, species assumed): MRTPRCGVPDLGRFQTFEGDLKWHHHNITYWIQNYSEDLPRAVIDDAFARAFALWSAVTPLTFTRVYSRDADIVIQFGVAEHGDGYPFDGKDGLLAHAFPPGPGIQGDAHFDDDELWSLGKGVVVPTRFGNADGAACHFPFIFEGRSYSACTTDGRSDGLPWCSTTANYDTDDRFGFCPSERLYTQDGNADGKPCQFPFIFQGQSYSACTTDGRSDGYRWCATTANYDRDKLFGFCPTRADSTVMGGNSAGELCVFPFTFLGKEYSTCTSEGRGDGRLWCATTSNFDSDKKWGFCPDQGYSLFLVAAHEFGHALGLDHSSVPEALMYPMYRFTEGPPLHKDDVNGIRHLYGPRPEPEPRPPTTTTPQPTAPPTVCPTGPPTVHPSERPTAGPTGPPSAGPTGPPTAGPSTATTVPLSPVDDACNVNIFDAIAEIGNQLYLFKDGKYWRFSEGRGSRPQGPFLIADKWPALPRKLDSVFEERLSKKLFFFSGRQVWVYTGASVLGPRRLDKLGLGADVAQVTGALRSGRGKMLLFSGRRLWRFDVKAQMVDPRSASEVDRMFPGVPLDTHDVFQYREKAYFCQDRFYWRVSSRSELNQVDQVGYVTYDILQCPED

A word on the Ki: it is a measure of affinity in units of concentration, obtained from inhibition or displacement. Take `NCc1ccc(Oc2ccc(S(=O)(=O)CC3CS3)cc2)cc1` (centres unmarked) [Compound 5, (4-(4-((Thiiran-2-ylmethyl)sulfonyl)phenoxy)phenyl)methanamine HCl salt]: at MMP-9, the “cleavage of tau in the presence of MMP-9” value is “prevents cleavage of tau”. The results for the Ki at MMP-2 (Ki) and at MMP-2 were 85 ± 1 nM and 85 nM, respectively. In addition, the Inhibition result on MMP-3 is recorded as “Ki (MMP-3) 23% inhibition at 100 μM”. The “efficacy in mouse model of diabetic wound healing” value in the test with diabetic (db/db) mice is reported as “significantly better efficacy than ND-322”.
